Data published in patent publication US7776827B2 (ImmuneRegen Biosciences, Inc., priority 2007, dated 2010).

Experiments:
Format in all cases: cell-based
[1] = tested on: CFU-Mk (platelet precursors); assay: Colony forming unit (CFU) assay, human bone marrow cells (Example 6); conditions: in the presence of substance P
Description: (§1) As stem cells differentiate in response to growth factors, they form a colony of cells with distinct morphologies that can be visualized using a microscope. This study examined the formation of three different progenitor cell populations, erythrocytes, platelets and granulocytes/macrophages.
(§2) Bone marrow aspirates were obtained from three healthy donors between 18 and 35 years of age following appropriate guidelines and protocols. Bone marrow mononuclear cells were isolated using a Ficoll-Hypaque density gradient, separating red blood cells from the others. Cells from each donor were processed independently and used for setting up individual experiments to assess the effects, if any, of donor variability.
Cells (1×10^5) were plated in duplicate onto 35 mm tissue culture plates for each condition tested and set up as described in Rameshwar et al. 1993, Blood. 81:2, 391-398. Erythroid and granulocyte/macrophage cultures were plated using methylcellulose and megakaryocyte cultures (platelet precursors) used a collagen-based support (StemCell Technologies, Vancouver, Canada, catalogue #04973). […] CP 99,994 (Pfizer) was used as a neurokinin-1 receptor antagonist and SR 48968 (Sanofi) was used as a neurokinin-2 receptor antagonist.
Cultures were set up with limited cytokines and growth factors which would promote differentiation of one progenitor per plate. […]

[2] = tested on: seven human-derived hematopoietic cell populations; assay: CFC assay, three donors, overall statements (Example 5); conditions: highest doses (1 nM)
Experimental: Compound was dissolved in 1 ml of Iscove's Modified Dulbecco's Medium (IMDM) and a serial dose response was prepared in single log doses so that the final dose in culture ranged from 1 nanoMolar (nM) to 1×10^−16 M. All working dilutions were performed in IMDM. Cell cultures from each donor were started at different times and a fresh solution of HOMSPERA® was prepared for each individual experiment.
Starting with human bone marrow aspirate, the mononuclear cell (MNC) fraction from each aspirate was separated from whole bone marrow using Ficoll-Paque density gradient centrifugation.
The colony-forming cell (CFC) assay was performed using optimal growth factor/cytokine concentrations. The reagents and conditions were similar to those used in Example 4, except that no ATP measurements were performed. The MNC fraction from each bone marrow donor was dissolved in IMDM and cultured at a concentration of 5,000 cells/well in a Culture Master Mix (HemoGenix, Inc., Colorado Springs, Colo.). […]
The mean, standard deviation and percent coefficient of variation was calculated for all groups, transposed and plotted as a function of donor. The percent from control values were calculated and also plotted as a function of donor. […]

[3] = tested on: human bone marrow-derived hematopoietic cell populations; assay: CFC differentiation and ATP proliferation assays, overall statements (Example 4)
Experimental: The compound was dissolved in 1 ml of Iscove's Modified Dulbecco's Medium (IMDM) and a serial dose response prepared in single log doses so that the final dose in culture ranged from 1 nM to 1×10^−16 M. All working dilutions were performed in IMDM.
Starting with human bone marrow aspirate, the mononuclear cell (MNC) fraction was separated from the whole bone marrow using Ficoll-Paque density gradient centrifugation. […] The cell concentration was adjusted so that the final cell concentration in culture was 10,000 cells/well.
Human bone marrow MNC was dissolved in IMDM and cultured at a concentration of 10,000 cell/well in a CAMEO™-96 Master Mix (HemoGenix, Inc., Colorado Springs, Colo.). […]
Prior to processing all 96-well plates, the total colony counts/well were manually enumerated by microscopy. The mean, standard deviation and percent coefficient of variation was calculated for all groups, transposed and plotted. The intracellular ATP (iATP) concentration was measured after manual enumeration. The output of the luminometer is non-standardized Relative Luminescence Units (RLU). […] This allowed the RLU values to be automatically calculated into standardized ATP (μM) units. For both the RLU and ATP values derived from each well, the luminometer software calculated the mean, standard deviation and percent coefficient of variation.

BFU-E = assay: Colony forming unit (CFU) assay, human bone marrow cells (Example 6); conditions: FIG. 1; control = zero level
Description: as §1, §2
(§3) Cells (1×10^5) were plated in duplicate onto 35 mm tissue culture plates for each condition tested and set up as described in Rameshwar et al. 1993, Blood. 81:2, 391-398. Erythroid and granulocyte/macrophage cultures were plated using methylcellulose and megakaryocyte cultures (platelet precursors) used a collagen-based support (StemCell Technologies, Vancouver, Canada, catalogue #04973). […] CP 99,994 (Pfizer) was used as a neurokinin-1 receptor antagonist and SR 48968 (Sanofi) was used as a neurokinin-2 receptor antagonist. […]

CFU-E = assay: as above; conditions: FIG. 2; control = zero level
Description: as §1, §2, §3

`COc1ccccc1CN[C@H]1CCCN[C@H]1c1ccccc1` [CP-99,994] was tested, and the “effect of receptor antagonist on substance P stimulation of platelet colony formation” value [1] was “blocks the stimulatory activity of substance P”.
For `CC(C)C[C@H](NC(=O)CN(C)C(=O)[C@H](Cc1ccccc1)NC(=O)[C@H](Cc1ccccc1)NC(=O)[C@H](CCC(N)=O)NC(=O)[C@H](CCC(N)=O)NC(=O)[C@@H]1CCCN1C(=O)[C@H](CCCCN)NC(=O)[C@@H]1CCCN1C(=O)[C@@H](N)CCCNC(=N)N)C(=O)N[C@@H](CCS(C)(=O)=O)C(N)=O` [HOMSPERA®], the toxicity [2] was “no apparent toxicity at the highest doses”, the toxicity ([3]; B-CFC and T-CFC, levels tested) was “do not demonstrate toxicity at the levels tested” and the cytotoxicity ([3]; most of populations, 14 days, 1 nM to 1×10^−16 M) was “apparent absence of distinct cytotoxicity”.
With `CC(=O)NC1(c2ccccc2)CCN(CC[C@H](CN(C)C(=O)c2ccccc2)c2ccc(Cl)c(Cl)c2)CC1` [SR48968] the “effect of receptor antagonist on substance P stimulation of platelet colony formation” value [1] was “showed no effect on substance P activity in enhancing platelet colony formation”.
“Arg Pro Lys Pro Gln Gln Phe Phe Gly Leu Met [substance P]” was tested, and the “BFU-E colony formation, increase from control values” (BFU-E) was ~60% and the “CFU-E colony formation, enhancement from control values” (CFU-E) was “about 70%”.
